System: hepatocytes
Experiment: Seq-Well scRNA-Seq of hepatocytes after APAP overdose (signature scores, DEG vs untreated)
Format: in vivo, mouse
Details: APAP vs. UT

CC(=O)Nc1ccc(O)cc1 [APAP, acetaminophen]
Hmgcs2 avg_logFC: 0.3105
Hmgcs2 pct.1: 0.974
Hmox1 avg_logFC: 0.3298
Hmox1 pct.1: 0.108
Hnf4a avg_logFC: 0.4538
Hnf4a pct.1: 0.876
Hp avg_logFC: 0.2604
Hp pct.1: 0.998
Hrg avg_logFC: 0.321
Hrg pct.1: 0.88
Hsd3b5 avg_logFC: −0.4712
Hsd3b5 pct.1: 0.367
Hsd17b13 avg_logFC: 0.4437
Hsd17b13 pct.1: 0.798
Hspa5 avg_logFC: 0.4048
Hspa5 pct.1: 0.971
Hyou1 avg_logFC: 0.3658
Hyou1 pct.1: 0.561
Igfbp4 avg_logFC: 0.3148
Igfbp4 pct.1: 0.919
Iigp1 avg_logFC: 0.3448
Iigp1 pct.1: 0.851
Il1r1 avg_logFC: 0.3633
Il1r1 pct.1: 0.39
Insig1 avg_logFC: 0.2541
Insig1 pct.1: 0.597
Itih2 avg_logFC: 0.2682
Itih2 pct.1: 0.942
Kif1b avg_logFC: 0.264
Kif1b pct.1: 0.629
Krt18 avg_logFC: 0.3307
Krt18 pct.1: 0.72
Lars2 avg_logFC: 1.069
Lars2 pct.1: 0.997
Lifr avg_logFC: −0.3532
Lifr pct.1: 0.608
Lipa avg_logFC: 0.2577
Lipa pct.1: 0.73
Lpgat1 avg_logFC: 0.3539
Lpgat1 pct.1: 0.693
Lpin2 avg_logFC: 0.3984
Lpin2 pct.1: 0.79
Lrg1 avg_logFC: 0.3478
Lrg1 pct.1: 0.861
Lrrc58 avg_logFC: 0.2998
Lrrc58 pct.1: 0.542
Man2a1 avg_logFC: 0.3404
Man2a1 pct.1: 0.742
Mat1a avg_logFC: 0.75
Mat1a pct.1: 0.983
Mbnl1 avg_logFC: 0.251
Mbnl1 pct.1: 0.511
Mfsd2a avg_logFC: 0.4484
Mfsd2a pct.1: 0.413
Mia3 avg_logFC: 0.2557
Mia3 pct.1: 0.749
Mt1 avg_logFC: 0.8909
Mt1 pct.1: 0.701
Mt2 avg_logFC: 0.6697
Mt2 pct.1: 0.518
Mup3 avg_logFC: −0.5425
Mup3 pct.1: 0.999
Mup4 avg_logFC: −1.001
Mup4 pct.1: 0.716
Mup5 avg_logFC: −1.342
Mup5 pct.1: 0.541
Mup6 avg_logFC: −1.882
Mup6 pct.1: 0.804
Mup7 avg_logFC: −0.6015
Mup7 pct.1: 0.937
Mup8 avg_logFC: −0.7268
Mup8 pct.1: 0.13
Mup9 avg_logFC: −1.914
Mup9 pct.1: 0.594
Mup11 avg_logFC: −1.728
Mup11 pct.1: 0.84
Mup12 avg_logFC: −0.3713
Mup12 pct.1: 0.665
Mup15 avg_logFC: −1.26
Mup15 pct.1: 0.166
Mup16 avg_logFC: −1.125
Mup16 pct.1: 0.594
Mup17 avg_logFC: −2.017
Mup17 pct.1: 0.947
Mup18 avg_logFC: −1.639
Mup18 pct.1: 0.838
Mup19 avg_logFC: −1.786
Mup19 pct.1: 0.916
Mup21 avg_logFC: −0.8723
Mup21 pct.1: 0.702
Myh9 avg_logFC: 0.4507
Myh9 pct.1: 0.531
Ndrg2 avg_logFC: 0.2845
Ndrg2 pct.1: 0.956
Ndufa4 avg_logFC: −0.2617
Ndufa4 pct.1: 0.851
Ndufs6 avg_logFC: −0.2721
Ndufs6 pct.1: 0.678
Nudt7 avg_logFC: −0.6192
Nudt7 pct.1: 0.691
P4hb avg_logFC: 0.2586
P4hb pct.1: 0.958
Pabpc1 avg_logFC: 0.3735
Pabpc1 pct.1: 0.75
Picalm avg_logFC: 0.2666
Picalm pct.1: 0.558
Pigr avg_logFC: 0.2747
Pigr pct.1: 0.952
Plin2 avg_logFC: 0.3714
Plin2 pct.1: 0.799
Prdx1 avg_logFC: −0.3499
Prdx1 pct.1: 0.878
Prdx4 avg_logFC: −0.2905
Prdx4 pct.1: 0.55
Pten avg_logFC: 0.265
Pten pct.1: 0.645
Ranbp2 avg_logFC: 0.2567
Ranbp2 pct.1: 0.555
Reep6 avg_logFC: 0.2892
Reep6 pct.1: 0.837
Retsat avg_logFC: 0.4126
Retsat pct.1: 0.87
Rora avg_logFC: 0.2853
Rora pct.1: 0.547
Rpl36al avg_logFC: −0.2702
Rpl36al pct.1: 0.495
Rps15 avg_logFC: −0.2722
Rps15 pct.1: 0.49
S100a9 avg_logFC: 0.3176
S100a9 pct.1: 0.058
Sdhc avg_logFC: 0.2605
Sdhc pct.1: 0.738
Sec61a1 avg_logFC: 0.2648
Sec61a1 pct.1: 0.642
Selenbp2 avg_logFC: −0.8304
Selenbp2 pct.1: 0.751
Sephs2 avg_logFC: 0.4286
Sephs2 pct.1: 0.865
Sepp1 avg_logFC: 0.3455
Sepp1 pct.1: 1
Serpina1a avg_logFC: −0.3347
Serpina1a pct.1: 0.96
Serpina1e avg_logFC: −0.4681
Serpina1e pct.1: 0.99
Serpina3m avg_logFC: 0.4597
Serpina3m pct.1: 0.836
Serpina3n avg_logFC: 0.4496
Serpina3n pct.1: 0.76
Serpina12 avg_logFC: −0.279
Serpina12 pct.1: 0.362
Sfxn1 avg_logFC: 0.2624
Sfxn1 pct.1: 0.636
Sh3glb1 avg_logFC: 0.2521
Sh3glb1 pct.1: 0.47
Slc4a4 avg_logFC: 0.2827
Slc4a4 pct.1: 0.558
Slc25a47 avg_logFC: 0.3096
Slc25a47 pct.1: 0.927
Slc39a14 avg_logFC: 0.356
Slc39a14 pct.1: 0.552
Slc40a1 avg_logFC: 0.2768
Slc40a1 pct.1: 0.517
Slco1a4 avg_logFC: 0.3826
Slco1a4 pct.1: 0.484
Snord118 avg_logFC: 0.4707
Snord118 pct.1: 0.531
Srxn1 avg_logFC: 0.564
Srxn1 pct.1: 0.369
Ssr3 avg_logFC: 0.2529
Ssr3 pct.1: 0.732
St3gal5 avg_logFC: 0.3876
St3gal5 pct.1: 0.695
Sult1a1 avg_logFC: 0.3652
Sult1a1 pct.1: 0.799
Tgoln1 avg_logFC: 0.2677
Tgoln1 pct.1: 0.713
Tm4sf4 avg_logFC: 0.276
Tm4sf4 pct.1: 0.493
Tmed5 avg_logFC: 0.3027
Tmed5 pct.1: 0.689
Tmem205 avg_logFC: −0.2953
Tmem205 pct.1: 0.877
Tnfrsf12a avg_logFC: 0.2588
Tnfrsf12a pct.1: 0.193
Trp53inp1 avg_logFC: 0.3977
Trp53inp1 pct.1: 0.526
Ttpa avg_logFC: 0.3932
Ttpa pct.1: 0.916
Txnrd1 pct.1: 0.64
Uroc1 avg_logFC: 0.3135
Uroc1 pct.1: 0.74
Usp9x avg_logFC: 0.2541
Usp9x pct.1: 0.503
Wbp1l avg_logFC: 0.3662
Wbp1l pct.1: 0.768
Zfp91 avg_logFC: 0.2619
Zfp91 pct.1: 0.666
mmu-mir-6240 avg_logFC: 0.3395
mmu-mir-6240 pct.1: 0.22
mt-Co1 avg_logFC: −0.9219
mt-Co1 pct.1: 0.977
mt-Co2 avg_logFC: −1.078

Reference: patent US20230053540A1, “TREATMENT OF LIVER INJURY” (Massachusetts Institute of Technology, priority 2019, published 2023)
